Data: ChEMBL document CHEMBL1156608, “Synthesis of stable and selective inhibitors of human galectins-1 and -3” (Bioorg Med Chem, 2008)

Key:
Galectin-3 [1] = target: T1, Galectin-3 (Homo sapiens, UniProt P17931); test: Binding affinity to galectin 3
Galectin-3 [2] = target: T1, Galectin-3; test: Inhibition of recombinant galectin 3 in human O type red blood cells by hemagglutinination assay relative to galactose
Galectin-1 [3] = target: T2, Galectin-1 (Homo sapiens, UniProt P09382); test: Inhibition of recombinant galectin 1 in human O type red blood cells by hemagglutinination assay relative to galactose
Galectin-1 [4] = target: T2, Galectin-1; test: Binding affinity to galectin 1
Galectin-3 [5] = target: T1, Galectin-3; test: Inhibition of recombinant galectin 3 in human O type red blood cells by hemagglutinination assay relative to lactose
Galectin-1 [6] = target: T2, Galectin-1; test: Inhibition of recombinant galectin 1 in human O type red blood cells by hemagglutinination assay relative to lactose
Galectin-3 [7] = target: T1, Galectin-3; test: Inhibition of galectin 3

T2 sequence (P09382 whole entry): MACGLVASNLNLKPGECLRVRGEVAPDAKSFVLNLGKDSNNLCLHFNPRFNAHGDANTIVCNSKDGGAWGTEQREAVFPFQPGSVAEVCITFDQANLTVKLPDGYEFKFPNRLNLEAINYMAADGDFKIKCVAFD
T1 sequence (P17931 whole entry): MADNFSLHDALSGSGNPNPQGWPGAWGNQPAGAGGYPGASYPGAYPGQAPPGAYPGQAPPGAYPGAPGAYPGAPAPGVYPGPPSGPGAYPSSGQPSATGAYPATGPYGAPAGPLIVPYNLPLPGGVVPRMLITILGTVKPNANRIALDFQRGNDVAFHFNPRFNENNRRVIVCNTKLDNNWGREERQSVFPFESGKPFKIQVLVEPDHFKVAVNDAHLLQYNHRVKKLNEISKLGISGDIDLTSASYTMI

| Activity (Galectin-3 [2]) | Activity (Galectin-1 [3]) | Compound | further results |
| --- | --- | --- | --- |
| < 10 | 160 | COC(=O)/C=C(\C[C@@H]1O[C@H](CO)[C@H](O)[C@H](O)[C@H]1O)c1ccccc1 | – |
| 2.6 | 1.3 | C#CCS[C@@H]1O[C@H](CO)[C@@H](O[C@@H]2O[C@H](CO)[C@H](O)[C@H](O)[C@H]2O)[C@H](O)[C@H]1O | – |
| 10 | < 10 | C=C(C[C@@H]1O[C@H](CO)[C@H](O)[C@H](O)[C@H]1O)c1ccc(OC)cc1 | – |
| 10 | 10 | COC(=O)/C=C/C[C@@H]1O[C@H](CO)[C@H](O)[C@H](O)[C@H]1O | – |
| 20 | < 10 | OC[C@@H]1O[C@H](n2cc(CS[C@@H]3O[C@H](CO)[C@H](O)[C@H](O)[C@H]3O)nn2)[C@@H](O)[C@H](O)[C@@H]1O | Activity (Galectin-3 [5]): 10 |
| 1 | 1 | LACTOSE, ANHYDROUS | – |
| 10 | < 10 | CC(=O)C[C@@H]1O[C@H](CO)[C@H](O)[C@H](O)[C@H]1O | – |
| 20 | < 10 | C#CCS[C@@H]1O[C@H](CO)[C@H](O)[C@H](O)[C@H]1O | – |
| < 10 | < 10 | OC[C@H]1O[C@@H](C/C=C/c2ccccc2)[C@H](O)[C@@H](O)[C@H]1O | – |
| < 10 | 10 | C=C(C[C@@H]1O[C@H](CO)[C@H](O)[C@H](O)[C@H]1O)c1cccc([N+](=O)[O-])c1 | – |
| 1.3 | 2.6 | OC[C@@H]1O[C@H](O[C@@H]2[C@@H](O)[C@H](O)[C@@H](n3cc(CS[C@@H]4O[C@H](CO)[C@H](O)[C@H](O)[C@H]4O)nn3)O[C@H]2CO)[C@@H](O)[C@H](O)[C@@H]1O | Activity (Galectin-3 [5]): 0.7; Activity (Galectin-1 [6]): 1.3 |
| < 10 | 10 | OC[C@@H]1O[C@H](SCC#CC#CCS[C@@H]2O[C@H](CO)[C@H](O)[C@H](O)[C@H]2O)[C@@H](O)[C@@H](O)[C@@H]1O | Activity (Galectin-1 [6]): 5 |

Second part, the compound before the results:

| Compound | Activity (Galectin-3 [2]) | Activity (Galectin-1 [3]) | further results |
| --- | --- | --- | --- |
| CO[C@@H]1O[C@H](CO)[C@@H](O[C@@H]2O[C@H](CO)[C@H](O)[C@H](O)[C@H]2O)[C@H](O)[C@H]1NC(C)=O | – | – | Activity (Galectin-3 [1]): 67 µM |
| O=S(=O)(c1ccc2ccccc2c1)[C@@H]1O[C@H](CO)[C@@H](O[C@@H]2O[C@H](CO)[C@H](O)[C@H](O)[C@H]2O)[C@H](O)[C@H]1O | – | – | Kd (Galectin-1 [4]): 40 µM; Kd (Galectin-3 [1]): 313 µM |
| COC(=O)Cn1cc(C[C@@H]2O[C@H](CO)[C@H](O)[C@H](O)[C@H]2O)nn1 [TRIAZOLYL GALACTOSIDE] | – | – | Kd (Galectin-1 [4]): 5000 µM |
| C/C=C/[C@@H]1O[C@H](CO)[C@H](O)[C@H](O)[C@H]1O | < 10 | < 10 | – |
| CO[C@@H]1O[C@H](CO)[C@@H](O[C@@H]2O[C@H](CO)[C@H](O)[C@H](O)[C@H]2O)[C@H](O)[C@H]1O | – | – | Activity (Galectin-3 [1]): 220 µM |
| OC[C@@H]1O[C@H](SCC#Cc2ccc(C#CCS[C@@H]3O[C@H](CO)C(O)[C@H](O)[C@H]3O)cc2)[C@@H](O)[C@H](O)[C@@H]1O (single isomer, unassigned) | < 10 | 20 | Activity (Galectin-1 [6]): 10 |
| OC[C@@H]1O[C@H](O[C@@H]2[C@@H](O)[C@H](O)[C@@H](OCCCCCCO[C@@H]3O[C@H](CO)[C@@H](O[C@@H]4O[C@H](CO)[C@H](O)[C@H](O)[C@H]4O)[C@H](O)[C@H]3O)O[C@H]2CO)[C@@H](O)[C@H](O)[C@@H]1O | – | – | IC50 (Galectin-3 [7]): 163 µM |
| OC[C@@H]1O[C@H](O[C@@H]2[C@@H](O)[C@H](O)[C@@H](SCC#CC#CCS[C@@H]3O[C@H](CO)[C@@H](O[C@@H]4O[C@H](CO)[C@H](O)[C@H](O)[C@H]4O)[C@H](O)[C@H]3O)O[C@H]2CO)[C@@H](O)[C@H](O)[C@@H]1O | 5 | 2.6 | Activity (Galectin-3 [5]): 2.5; Activity (Galectin-1 [6]): 1.3 |
| O=C[C@H](O)[C@@H](O)[C@@H](O)[C@H](O)CO | 1 | 1 | – |
| OC[C@H]1O[C@@H](C/C=C/c2cccc(/C=C/C[C@@H]3O[C@H](CO)[C@H](O)[C@H](O)[C@H]3O)c2)[C@H](O)[C@@H](O)[C@H]1O | < 10 | 10 | Activity (Galectin-1 [6]): 5 |
| OC[C@@H]1O[C@H](O[C@@H]2[C@@H](O)[C@H](O)[C@@H](n3cc(CS[C@@H]4O[C@H](CO)[C@@H](O[C@@H]5O[C@H](CO)[C@H](O)[C@H](O)[C@H]5O)[C@H](O)[C@H]4O)nn3)O[C@H]2CO)[C@@H](O)[C@H](O)[C@@H]1O | 5 | 2.6 | Activity (Galectin-3 [5]): 2.5; Activity (Galectin-1 [6]): 1.3 |
| OC[C@@H]1O[C@H](n2cc(CS[C@@H]3O[C@H](CO)[C@@H](O[C@@H]4O[C@H](CO)[C@H](O)[C@H](O)[C@H]4O)[C@H](O)[C@H]3O)nn2)[C@@H](O)[C@H](O)[C@@H]1O | 2.6 | 1.3 | Activity (Galectin-3 [5]): 1.3; Activity (Galectin-1 [6]): 0.7 |
| O=C(N[C@@H]1[C@H](O)[C@H](CO)O[C@H](S[C@@H]2O[C@H](CO)[C@H](O)[C@H](NC(=O)c3ccc([N+](=O)[O-])cc3)[C@H]2O)[C@H]1O)c1ccc([N+](=O)[O-])cc1 | – | – | Kd (Galectin-3 [1]): 0.033 µM |
| CO[C@@H]1O[C@H](CO)[C@@H](O[C@@H]2O[C@H](CO)[C@H](O)[C@H](NC(=O)c3cc4ccccc4cc3C(=O)O)[C@H]2O)[C@H](O)[C@H]1NC(C)=O | – | – | Kd (Galectin-3 [1]): 0.3 µM |
